Results as given in patent US11912682B2, “Isoindolinone compounds” (Monte Rosa Therapeutics, Inc., priority 2021, dated 2024).
Like-named read-outs stand apart in the source and are kept apart here.

Columns and labels:
[1] = target: GSPT1 (Homo sapiens (Human), UniProt P15170+Q96SW2); test: immunofluorescence assay for GSPT1 degradation in CAL-51 cells (Example 4); assay type: cell-based
Procedure, shortened: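 CAL-51 cells on fibronectin-coated plates were treated 6 h with serial dilutions (30 μM to 0.1 nM), then fixed and immunostained for GSPT1 with DAPI and phalloidin counterstains. Per-cell mean GSPT1 intensity from high-content imaging, normalized to controls; DC50 by non-linear regression.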

[2] = target: IKZF3 (Aiolos) (Homo sapiens (Human), UniProt Q9UKT9); test: selectivity by Western blot in MM1S cells, IKZF3; assay type: cell-based; set-up: key to IKZF3 degradation: A represents a no degradation observed at 30 μM; B represents trace degradation at 30 μM (below 20%); C represents weak degradation at 30 μM (below 50%); D represents degradation at 30 μM (>90%); E represents degradation at 3 μM (>90%); F represents degradation at 0.3 μM (>90%); conditions: for IKZF3 degradation: MM1S cells, 6 hours, 0.3, 3 and 30 μM
Chain of IKZF3 (Aiolos) (Q9UKT9 whole entry, looked up): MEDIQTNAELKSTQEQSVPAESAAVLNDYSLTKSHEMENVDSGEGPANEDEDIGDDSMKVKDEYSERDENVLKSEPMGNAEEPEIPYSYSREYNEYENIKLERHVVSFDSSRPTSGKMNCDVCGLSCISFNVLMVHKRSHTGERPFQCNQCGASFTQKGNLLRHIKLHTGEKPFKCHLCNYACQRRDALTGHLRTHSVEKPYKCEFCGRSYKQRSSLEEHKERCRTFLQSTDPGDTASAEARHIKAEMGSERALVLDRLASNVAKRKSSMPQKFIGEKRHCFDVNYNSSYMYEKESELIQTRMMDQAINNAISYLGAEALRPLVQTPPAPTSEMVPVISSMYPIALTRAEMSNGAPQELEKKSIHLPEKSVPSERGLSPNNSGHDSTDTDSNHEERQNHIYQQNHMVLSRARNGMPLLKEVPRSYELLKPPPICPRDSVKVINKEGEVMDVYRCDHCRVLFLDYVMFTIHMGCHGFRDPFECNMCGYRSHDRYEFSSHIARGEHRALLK
Method: MM1S cells were purchased from ATCC (cat. Number CRL-2974), sub-cultured in 90% RPMI 1640 with 10% FBS, supplemented with 1× P/S and incubated at 37° C., 5% CO2. Compounds were stored as 10 mM DMSO stock. For the assay, MM1S cells (3 million cells/well) were plated in 6-well plates and incubated over night. Cells were treated with respective compounds using a serial dilution: 0.3 μM, 3 μM and 30 μM as well as a vehicle only (DMSO) control for 6 hours. Media with suspension cells was subsequently transferred to 15 mL conical tubes, wells rinsed twice with ice-cold PBS and merged with cell suspension in respective 15 mL conical tube. Cells were spinned down, supernatant aspirated, pellets resuspended in ice-cold PBS and transferred to microtubes. Cells were spinned down, supernatant aspirated and pellets resuspended in 120 μL RIPA lysis buffer supplemented with protease and phosphatase inhibitors. Cell lysates were incubated on ice for 20 minutes followed by centrifugation at >20,000 xg for 5 min. Supernatants were transferred to fresh microtubes and stored at −80° C. Total protein concentration was determined using a BCA assay with a BSA standard curve and concentration of all samples was adjusted to 1 mg/mL. 25 μL 4× LDS sample buffer supplemented with 100 mM DTT was added to 75 μL sample. Samples were centrifuged (8,000 xg, 1 min) and incubated at 95° C. for 5 min followed by another centrifugation step (8,000 xg, 1 min). 20 μL of each sample was loaded on a 4-12% gel alongside a protein molecular weight marker. Gels were run in the presence of MOPS buffer at 80 Volts for 30 min, followed by 120 Volts for 1.5 h and proteins subsequently transferred onto nitrocellulose membranes at 20 Volts for 7 min using an iBlot2 Gel Transfer Device. Membranes were then cut horizontally into two pieces, covering 80-50 kDa and 50-25 kDa. Blocking the membranes was performed by gently shaking in 5% (w/v) skim milk in TSB-T for 1 hr at room temperature. All primary antibodies were used at a 1/1000 in 5% (w/v) BSA dissolved in TBST and incubated with membranes over night at 4° C. Anti-IKZF1 (Ikaros; D6N9Y; 14859S), anti-IKZF3 (Aiolos; D1C1E; 15103S) antibodies were purchased from Cell Signalling Technology, anti-ZFP91 antibody from Bethyl laboratories, anti-GSPT1 from Sigma Aldrich (HPA052488) and anti CK1alpha from AbCam (ab206652). After three washes with 1× TBST for 5 min, HRP-coupled secondary antibodies diluted in 5% (w/v) BSA/TBST (Goat Anti-Rb IgG, dil. 1/10,000; Goat Anti-Mouse IgG, dil. 1/5000) were added for 1 hr at room temperature. After three washes with 1× TBST (5 minutes each), membranes were incubated with ECL reagent for 1 min at room temperature. Chemiluminescence signals were then detected using a LAS-4000 system with default settings and signals quantified using Image Studio Lite software (version 5.2). Membrane parts previously incubated with antibody against CK1alpha were stripped off antibodies by incubating with stripping buffer for 30 minutes followed by three washed with TBST (5 min each), blocking with 5% (w/v) skim milk for 1 hr, and incubation with primary antibody against GAPDH overnight at 4° C. Subsequent washes, incubation with secondary antibody and signal acquisition were performed as described above.

[3] = tested on: human cell line NCI-H1155; test: N-Myc-driven mouse xenograft model, NCI-H1155 (FIG. 3A); assay type: in vivo; conditions: for tumor size (tumor volume): study to day 21
[4] = 6 hours, read-out: Activity for GSPT1 degradation, Code (DC50)
[5] = GSPT1 degradation, read-out: DC50 value

Chain of GSPT1 (P15170 whole entry): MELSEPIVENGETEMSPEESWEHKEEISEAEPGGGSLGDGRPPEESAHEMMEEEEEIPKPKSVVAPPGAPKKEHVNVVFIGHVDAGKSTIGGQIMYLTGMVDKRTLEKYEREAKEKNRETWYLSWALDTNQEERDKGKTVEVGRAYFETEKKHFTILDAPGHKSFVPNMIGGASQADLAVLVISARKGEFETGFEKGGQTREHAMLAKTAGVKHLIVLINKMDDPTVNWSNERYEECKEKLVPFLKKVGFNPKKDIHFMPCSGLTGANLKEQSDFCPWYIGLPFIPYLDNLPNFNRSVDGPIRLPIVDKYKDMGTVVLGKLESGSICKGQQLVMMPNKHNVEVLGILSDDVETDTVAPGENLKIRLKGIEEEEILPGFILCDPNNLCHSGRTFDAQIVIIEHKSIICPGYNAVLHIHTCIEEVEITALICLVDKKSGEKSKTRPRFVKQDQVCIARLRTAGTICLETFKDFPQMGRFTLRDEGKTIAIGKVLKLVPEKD
Chain of GSPT1 (Q96SW2 whole entry): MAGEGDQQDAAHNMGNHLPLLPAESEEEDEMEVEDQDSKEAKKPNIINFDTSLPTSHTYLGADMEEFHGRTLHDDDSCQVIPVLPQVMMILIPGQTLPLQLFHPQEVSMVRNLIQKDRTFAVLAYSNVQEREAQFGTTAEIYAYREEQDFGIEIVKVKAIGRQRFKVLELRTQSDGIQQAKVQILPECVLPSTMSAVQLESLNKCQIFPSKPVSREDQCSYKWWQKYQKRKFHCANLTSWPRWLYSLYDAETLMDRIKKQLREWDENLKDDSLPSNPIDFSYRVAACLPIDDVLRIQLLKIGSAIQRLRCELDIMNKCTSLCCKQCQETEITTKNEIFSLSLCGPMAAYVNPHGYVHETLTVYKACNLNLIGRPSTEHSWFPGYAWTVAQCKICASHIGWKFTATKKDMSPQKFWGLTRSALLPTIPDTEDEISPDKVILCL
Chain of GSPT1 (Q16531 2-1140 partner): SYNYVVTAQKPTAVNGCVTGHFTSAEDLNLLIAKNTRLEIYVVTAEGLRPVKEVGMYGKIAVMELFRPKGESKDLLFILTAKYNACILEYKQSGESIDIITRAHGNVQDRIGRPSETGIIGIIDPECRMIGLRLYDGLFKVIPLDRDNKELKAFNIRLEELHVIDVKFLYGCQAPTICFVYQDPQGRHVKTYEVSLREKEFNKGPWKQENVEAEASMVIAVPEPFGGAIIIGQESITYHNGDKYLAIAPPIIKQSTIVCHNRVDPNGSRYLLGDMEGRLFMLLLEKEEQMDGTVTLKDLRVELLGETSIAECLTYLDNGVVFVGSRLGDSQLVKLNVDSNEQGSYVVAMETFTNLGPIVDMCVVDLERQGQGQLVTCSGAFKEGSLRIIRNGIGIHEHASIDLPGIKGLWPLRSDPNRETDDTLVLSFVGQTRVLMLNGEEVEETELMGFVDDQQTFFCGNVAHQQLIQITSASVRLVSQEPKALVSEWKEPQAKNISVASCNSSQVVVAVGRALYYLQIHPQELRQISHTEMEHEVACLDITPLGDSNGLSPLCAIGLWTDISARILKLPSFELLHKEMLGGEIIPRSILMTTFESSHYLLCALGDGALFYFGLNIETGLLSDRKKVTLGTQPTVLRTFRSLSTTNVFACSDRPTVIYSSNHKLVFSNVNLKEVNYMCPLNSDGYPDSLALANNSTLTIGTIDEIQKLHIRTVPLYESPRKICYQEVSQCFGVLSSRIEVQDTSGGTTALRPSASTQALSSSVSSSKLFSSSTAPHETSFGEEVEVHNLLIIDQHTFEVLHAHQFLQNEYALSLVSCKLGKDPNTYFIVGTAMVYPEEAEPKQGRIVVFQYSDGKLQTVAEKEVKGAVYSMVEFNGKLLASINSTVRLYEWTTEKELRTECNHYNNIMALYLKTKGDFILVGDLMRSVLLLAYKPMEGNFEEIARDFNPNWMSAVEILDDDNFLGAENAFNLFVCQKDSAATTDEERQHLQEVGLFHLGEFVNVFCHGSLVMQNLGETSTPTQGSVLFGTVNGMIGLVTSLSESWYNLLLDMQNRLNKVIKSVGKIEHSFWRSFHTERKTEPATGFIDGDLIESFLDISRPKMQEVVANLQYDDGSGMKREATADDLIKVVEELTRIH

| SMILES | DC50 [1, 4] | DC50 [1, 5] | IKZF3 degradation [2] | tumor growth (tumor volume) ([3]; 1 mg/kg PO once daily) | tumor size (tumor volume) ([3]; 3 mg/kg PO once daily) | tumor size (tumor volume) ([3]; 6 mg/kg PO five days on and nine days off) | body weight ([3]; oral administration) | effect on tumor growth (tumor volume) ([3]; oral administration) | IKZF3 degradation (FIG. 1A) ([2]; highest concentration tested of 30 μM) |
| --- | --- | --- | --- | --- | --- | --- | --- | --- | --- |
| Cc1ncc(NC(=O)OCc2ccc3c(c2)C(=O)N(C2CCC(=O)NC2=O)C3)cc1Cl (stereo not drawn) [Compound 6] | < 30 nM | ≤ 30 nM | B (B represents trace degradation at 30 μM (below 20%)) |  |  |  |  |  |  |
| O=C1CCC(N2Cc3ccc(COC(=O)Nc4ccc(N5CCCCC5)nc4)cc3C2=O)C(=O)N1 (stereo not drawn) [Compound 15] | < 30 nM | ≤ 30 nM | B (B represents trace degradation at 30 μM (below 20%)) |  |  |  |  |  |  |
| CC(C)(C)c1ccc(NC(=O)OCc2ccc3c(c2)C(=O)N(C2CCC(=O)NC2=O)C3)cn1 (stereo not drawn) [Compound 43] | < 30 nM | ≤ 30 nM | B (B represents trace degradation at 30 μM (below 20%)) |  |  |  |  |  |  |
| O=C1CCC(N2Cc3ccc(COC(=O)Nc4ccc(-c5ccccc5)nc4)cc3C2=O)C(=O)N1 (stereo not drawn) [Compound 42] | < 30 nM | ≤ 30 nM | A |  |  |  |  |  |  |
| Cc1ccc(NC(=O)OCc2ccc3c(c2)C(=O)N(C2CCC(=O)NC2=O)C3)cc1Cl (stereo not drawn) [Compound 10] | < 30 nM | ≤ 30 nM | B (B represents trace degradation at 30 μM (below 20%)) | tumor growth was suppressed for two weeks | tumor size decreased, became undetectable by day eight and remained so until the end of the study at day 21 | tumor size decreased, became undetectable by day eight and remained so until the end of the study at day 21 | no body weight loss | tumor growth inhibition | none of the known the substrates IKZF1, IKZF3, SALL4, CK1alpha was degraded |
